We go through 1 molecule from patent US20120245111A1, “FLAVANONES-CONTAINING FOOD COMPOSITIONS” (NESTEC S.A., priority 2009, published 2012).

The series can be described thus: Particle size distribution of hesperidin in water by laser diffraction (Malvern Mastersizer 2000). The series is classed as physicochemical. As to the method: The particle size distribution is observed using a microscopy optic LEICA DMR (mode Differential Interference Contrast and polarisation). The particle size distribution is measured by laser diffraction using a Malvern Mastersizer 2000.
The hesperidin obtainable by the heat treatment processes of the invention has a smaller size distribution compared to commercially available hesperidin as illustrated in FIG. 3.
For variant 3 (140° C., 60 s) and variant 4 (160° C., 10 s), the cumulative distribution of particle size below 20 microns increases to 99%. Thus, it can be seen that the heat treatment has an influence on the particle size of hesperidin and on the conformation of hesperidin particles. Therefore, sedimentation is avoided.

Consider `COc1ccc([C@@H]2CC(=O)c3c(O)cc(O[C@@H]4O[C@H](CO[C@@H]5O[C@@H](C)[C@H](O)[C@@H](O)[C@H]5O)[C@@H](O)[C@H](O)[C@H]4O)cc3O2)cc1O` [commercially available hesperidin, hesperidin], for which the “% of cumulative distribution of hesperidin particle below 20 microns” value (0.5% hesperidin in water, before or after UHT treatment) is reported as 40%. The “crystal size distribution range” value (commercially available hesperidin extract, crystalline form) was 0.1 to 160 microns.
